Common to all, as to assay: NCI tumour cell line growth inhibition, 48 h
Experiment [1] deals with HCT-116 colon.
For experiment [2], the system named is HL-60(TB) leukemia.
Experiment [3] has as its system HOP-92 NSCLC.
Experiment [4] has as its system KM12 colon.
For experiment [5], the system named is LOX IMVI melanoma.
Experiment [6] deals with MCF7 breast.
The subject of experiment [7] is NCI-H522 lung.
In experiment [8] the test system is RXF 393 renal.
Experiment [9] concerns SK-MEL-28 melanoma.
In experiment [10] the test system is SR leukemia.

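Dose response: 5 concentrations. Exposure: 48 h. Format: 96-well plates. Endpoint: linear interpolation; highest concentration if not reached. The concentration for 50% growth inhibition is given as GI50. TGI: concentration producing complete growth inhibition.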 Some results are limits rather than exact numbers.

In the case of `CCCCOC(=O)C1OC(O[C@H]2CCC3(C)C(CCC4(C)C3CC=C3C5CC(C)(C)CCC5(C(=O)O)CC[C@]34C)C2(C)C)C(OC2OC(CO)C(O)C(O)C2O)C(OC2OC(CO)C(O)C(O)C2O)C1O` (stereo partly specified), the GI50 was 20.6 µM in [1]; 22.3 µM in experiment [2]; 33.2 µM in experiment [3]; 30.8 µM in [4]; 18 µM in experiment [5]; 38.4 µM in [6]. The GI50 was 43.9 µM in [7], 58.5 µM in [8] and 26.7 µM in [9]. Also, the TGI in experiment [1] was 42.7 µM; in [2], 52 µM; in experiment [3], greater than 100 µM; in [4] it was 93.5 µM; in [5], 31.8 µM; in experiment [6] it was greater than 100 µM. Also, the TGI was greater than 100 µM in experiment [7], greater than 100 µM in experiment [8] and 52.2 µM in experiment [9].

`Cc1ccc2c(=O)cc(-c3ccc(F)cc3)[nH]c2n1`: the GI50 in experiment [1] was 33.9 µM. Moreover, the TGI in experiment [1] is greater than 100 µM; in experiment [2], 34.3 µM; in experiment [3], 86.5 µM; in experiment [4], greater than 100 µM; in experiment [5], greater than 100 µM; in [6], greater than 100 µM. Besides, the TGI in experiment [7] is 84.7 µM; in experiment [9], greater than 100 µM; in experiment [10], 34.4 µM.

On to `O=C1C=C(Cl)C(=O)C(c2ccc(Cl)cc2)=C1`, for which the TGI in experiment [1] is 38.1 µM; in [2], 42.8 µM; in experiment [3], 35.7 µM; in experiment [4], greater than 100 µM; in experiment [5], 35.7 µM; in experiment [6], 41.6 µM. The TGI in experiment [7] was 47.4 µM; in experiment [8], 34 µM; in experiment [9] it was 43.4 µM.

As for `COc1cc(Cc2cnc(/N=C3\C(=O)N(CN4CCN(c5c(F)cc6c(=O)c(C(=O)O)cn(C7CC7)c6c5OC)CC4C)c4ccc(F)cc43)nc2N)cc(OC)c1OC` (stereo unspecified), the GI50 in [1] is 7.78 µM; in experiment [2], 3.28 µM; in experiment [3], 7.64 µM; in experiment [4], 13.7 µM; in experiment [5], 2.38 µM; in experiment [6] it was 8.35 µM. Besides, the GI50 in experiment [7] was 63.5 µM; in [8], 16 µM. Besides, the TGI in experiment [1] is 20.6 µM; in [2], greater than 100 µM; in experiment [3], 21.8 µM; in experiment [4], 35.9 µM; in [5], 4.74 µM; in [6] it was 52.8 µM. Besides, the TGI in experiment [7] was greater than 100 µM; in experiment [8] it was 49.1 µM.

Turning to `CC1(C)CCc2c(c3c(c4c(=O)c(O)c(-c5ccc(O)cc5)oc24)OC(C)(C)CC3)O1`, the GI50 in experiment [1] is 57.6 µM; in experiment [3], 14.6 µM; in experiment [4], greater than 100 µM; in experiment [5], 90.5 µM; in [6] it was greater than 100 µM; in [7], greater than 100 µM. In addition, the GI50 in experiment [9] and in [10] was greater than 100 µM throughout. In addition, the TGI in experiment [1] was greater than 100 µM; in experiment [3], 38.2 µM; in experiment [4], greater than 100 µM; in [5], greater than 100 µM; in experiment [6], greater than 100 µM; in [7], greater than 100 µM. Further, the TGI in experiment [9] and in experiment [10] was greater than 100 µM in each case.

With `COc1ccc2c(C3=C(c4cn(C)c5ccccc45)C(=O)NC3=O)cn(C)c2c1`, the GI50 in experiment [1] was 0.112 µM; in experiment [2], 0.0998 µM; in experiment [4] it was 0.111 µM; in experiment [5] it was 0.154 µM; in [6] it was 0.0853 µM; in experiment [7], 0.0742 µM. Moreover, the GI50 was 0.166 µM in experiment [9] and 0.0717 µM in experiment [10]. The TGI in experiment [1] is greater than 25 µM; in experiment [4] it was 7.24 µM; in experiment [5], greater than 25 µM; in experiment [6] it was greater than 25 µM; in [7] it was 0.902 µM; in experiment [9], greater than 25 µM. The TGI in experiment [10] was greater than 25 µM.

In the case of `CC(C)C/C(CC(=O)CCC(=O)Nc1ccccc1[N+](=O)[O-])=N\NC(=O)c1cc2ccccc2cc1O`, the TGI in experiment [1] is greater than 100 µM; in experiment [2], 88.7 µM; in experiment [3], greater than 100 µM; in experiment [4] it was greater than 100 µM; in [5], 79 µM; in [7] it was 76 µM. Moreover, the TGI in experiment [8], in experiment [9] and in experiment [10] was greater than 100 µM in each case.

As for `CCCCCN(CCCCC)CCCNc1c2c(nc3ccc(Cl)cc13)CCCC2`, the GI50 in experiment [1] was 0.88 µM; in experiment [3] it was 1.19 µM; in [4] it was 3.13 µM; in [5], 2.06 µM; in experiment [6], 2.46 µM; in [7], 1.74 µM. In addition, the GI50 in [8] was 2.82 µM; in experiment [9], 3.74 µM. Also, the TGI in experiment [1] came out at 2.9 µM; in experiment [3] it was 5.63 µM; in [4] it was 10.3 µM; in experiment [5], 5.97 µM; in experiment [6], 8.34 µM; in experiment [7] it was 3.86 µM. The TGI came to 7.95 µM in [8] and 13.8 µM in experiment [9].

`CCCCCCCCCCCCCCCCCC(CCCCCCCCCCCCCCCCC)OP(=O)(O)O`: the TGI in experiment [1], in experiment [2], in experiment [3], in experiment [4], in [5] and in [7] was greater than 100 µM throughout. For the same compound, the TGI in [8], in experiment [9] and in experiment [10] was greater than 100 µM in each case.

As for `Cc1ccc(NC2=C(Cl)C(=O)N(Cc3ccccc3)C2=O)cc1O`, the GI50 is 37.7 µM in [1]; 6.45 µM in experiment [2]; 41.4 µM in experiment [4]; 18 µM in [5]; 32.2 µM in experiment [6]; 41.2 µM in [7]. In addition, the GI50 in [8] is 52 µM; in experiment [9] it was 52.8 µM; in experiment [10], 6.91 µM. Besides, the TGI was greater than 100 µM in experiment [1]; greater than 100 µM in experiment [2]; greater than 100 µM in [4]; 63.4 µM in experiment [5]; greater than 100 µM in [6]; greater than 100 µM in experiment [7]. For the same compound, the TGI in experiment [8], in experiment [9] and in experiment [10] was greater than 100 µM in each case.

These data come from PubChem BioAssay (NCI).
